{"source": "patent US20250099382A1", "about": "“Colloidal suspension of nutraceutical ingredients to treat traumatic brain injury” (priority 2023, published 2025)", "key": {"rat [1]": {"test_system": "rat", "details": "PubChem.gov, cited from earlier work; for LD50: rat, route not stated"}, "rat [2]": {"test_system": "rat", "test": "LD50 reported by PubChem.gov, rat", "details": "for human equivalent of LD50: LD50 divided by 6.2 (rat), times 65 kilograms"}, "mice [3]": {"test_system": "mice", "details": "PubChem.gov, cited from earlier work"}, "mice [4]": {"test_system": "mice", "test": "LD50 reported by PubChem.gov, human conversion with the mouse factor 12.3", "details": "LD50 divided by 12.3, times 65 kilograms", "from_the_text": "Much of the research for toxicity and efficacy studies is preclinical, which necessitates a conversion of preclinical data to human equivalent data for interpretation of implications of preclinical data to clinical studies. […] For conversion of preclinical data from mice to human, divide the mg/kg dosage by 12.3. One would then multiply the result by an approximated average weight in kilograms for human clinical subjects to establish a preliminary clinical dosage. For example, if the preclinical dosage indicating drug efficacy were 100 mg/kg, this dosage would be divided by 12.3 to get 8.13 mg/kg, which would then be multiplied by an average weight in kilograms designated for the clinical study. For an average clinical subject weight of 65 kilograms, the original 100 mg/kg preclinical dosage would translate to 528 mg, which would be the preliminary dosage for clinical studies. For conversion of preclinical data from rat to human, the animal dosage would be divided by 6.2, then multiplied by the average subject weight in kilograms for the clinical study.\nTo convert this preclinical data to human equivalent data, 2.2 grams divided by 12.3 is 179 mg, times 65 kilograms for a human subject weighing 65 kg is approximately 11.6 grams.\nFor human equivalency dosage, 100 mg/kg divided by 12.3 is 8.13 mg/kg, times 65 for a 65-kilogram clinical subject is 528 mg/kg. […]"}, "[5]": {"test_system": "weight drop contusion TBI", "details": "100 mg/kg to mice after weight drop contusion TBI; cited from earlier work"}, "platelets": {"test_system": "platelets", "details": "cited from earlier work"}, "TBI": {"test_system": "TBI", "details": "100 mg/kg, rats; cited from earlier work"}, "human lymphocytes": {"test_system": "human lymphocytes", "details": "human lymphocytes in culture; cited from earlier work"}, "rats": {"test_system": "rats", "details": "up to 5 grams per kilogram for 60 days; cited from earlier work"}, "mice [6]": {"test_system": "mice", "details": "up to 5 grams per kilogram for 60 days; cited from earlier work"}}, "data": [{"compound": "Nc1ncnc2c1ncn2[C@@H]1O[C@H](COP(=O)([O-])OP(=O)([O-])OP(=O)([O-])[O-])[C@@H](O)[C@H]1O.[Mg+2].[Mg+2]", "note": "[ATP, Adenosine triphosphate magnesium]", "values": [{"measurement": "LD50", "setting": "rat [1]", "result": "greater than 2 grams per kilogram"}, {"measurement": "human equivalent of LD50", "setting": "rat [2]", "result": "> 21", "unit": "grams"}]}, {"compound": "N[C@@H](CCC(=O)N[C@@H](CS)C(=O)NCC(=O)O)C(=O)O", "note": "[GSH, Glutathione]", "values": [{"measurement": "LD50, intravenous", "setting": "mice [3]; intravenous", "result": "2.2 grams per kilogram of animal weight"}, {"measurement": "human equivalent of intravenous LD50", "setting": "mice [4]", "result": "approximately 11.6 grams"}]}, {"compound": "CC(=O)O[C@H](CC(=O)[O-])C[N+](C)(C)C", "note": "[acetyl L-carnitine, Acetyl L-carnitine]", "values": [{"measurement": "LD50, intravenous", "setting": "rat [1]; intravenous, rat species", "result": "1,265 mg/kg"}, {"measurement": "human equivalent dosage of intravenous LD50", "setting": "rat [2]; LD50 divided by 6.2, times 65 for a 65-kilogram human patient", "result": 13.2, "unit": "grams"}]}, {"compound": "COc1cc(/C=C/C(=O)CC(=O)/C=C/c2ccc(O)c(OC)c2)ccc1O", "note": "[curcumin, Curcumin]", "values": [{"measurement": "recovery after TBI", "setting": "[5]", "result": "Major improvements in recovery were noted"}, {"measurement": "LD50", "setting": "mice [3]; route not stated", "result": "greater than 2 grams per kilogram of animal weight"}, {"measurement": "human equivalent of LD50", "setting": "mice [4]", "result": "approximately 10.6 grams"}, {"measurement": "production of thromboxane A2 by platelets", "setting": "platelets", "result": "reduced the production of thromboxane A2 by platelets"}]}, {"compound": "Oc1ccc(C=Cc2cc(O)cc(O)c2)cc1", "note": "[resveratrol, 3,5,4′-Trihydroxystilbene]", "values": [{"measurement": "secondary injury from TBI", "setting": "TBI", "result": "significantly attenuated secondary injury from TBI"}, {"measurement": "genetic damage induced by permethrin", "setting": "human lymphocytes", "result": "diminishes genetic damage induced by permethrin"}]}, {"compound": "NCCS(=O)(=O)O", "note": "[taurine]", "values": [{"measurement": "LD50", "setting": "rat [1]", "result": "greater than 7 grams per kilogram"}, {"measurement": "human equivalent of LD50", "setting": "rat [2]", "result": 74, "unit": "grams"}]}, {"compound": "Fulvic acid", "values": [{"measurement": "toxicity or genotoxicity", "setting": "rats", "result": "No toxicity or genotoxicity was found"}, {"measurement": "toxicity or genotoxicity", "setting": "mice [6]", "result": "No toxicity or genotoxicity was found"}]}]}
